Source: PubChem BioAssay AID720589 (Broad Institute, 2013)

Test system: HepG2 viability, ATP luminescence (CellTiter-Glo), 72 h
Assay: HepG2 hepatoma cell cytotoxicity, dose response, cytotoxicity control, CellTiter-Glo luminescence, cherry-pick, set 3 (AID 720589)

Going from C[C@H]1CN([C@@H](C)CO)C(=O)c2cc(N(C)C)ccc2O[C@@H]1CN(C)Cc1ccc(C(=O)Nc2ccccc2N)cc1 to C[C@H]1CN([C@@H](C)CO)C(=O)c2cc(N(C)C)ccc2O[C@H]1CN(C)Cc1ccc(C(=O)Nc2ccccc2N)cc1, the AC35 falls from 0.975 µM to 0.298 µM (3.3-fold).

Going from Cc1nc(N)nc(N)c1/C=C/C(C)(C)c1ccc(Cl)cc1 to Cc1nc(N)nc(N)c1CCCc1ccc(Cl)c(Cl)c1, the AC35 rises from under 0.011 µM to 0.761 µM.

COc1ccc(NC(=S)N=Nc2c(O)[nH]c3ccccc23)cc1 and COC(=O)Cc1[nH]n(-c2nc3ccccc3s2)c(=O)c1C(C)=Nc1ccc(C)cc1 are within 1.5-fold of each other in AC35: 15.8 µM for the first, 17.8 µM for the second.

Compared with CN(Cc1cnc2nc(N)nc(N)c2n1)c1ccc(C(=O)N[C@@H](CCC(=O)O)C(=O)O)cc1, C[C@H](CO)N1C[C@H](C)[C@H](CN(C)Cc2ccc(C(=O)Nc3ccccc3N)cc2)Oc2ccc(NC(=O)C3CC3)cc2CC1=O is 33-fold higher in AC35: 0.0224 µM for the first, 0.74 µM for the second.

Going from COc1ccccc1-c1ccc(OCCCN2CCC(C(O)(c3ccccc3)c3ccccc3)CC2)cc1 to O=C(NC(c1ccc(F)cc1)c1ccc2ccccc2n1)C1CCN(Cc2cccc(C(F)(F)F)c2)CC1 (configuration not stated), the AC35 rises from 7.47 µM to 20 µM (2.7-fold).

First: N=c1ccn2c(n1)O[C@H]1[C@H](O)[C@@H](CO)O[C@H]12
Second: C=C1C(=O)O[C@@H]2[C@H]1[C@@H](OC(=O)/C(C)=C/C)C/C(C)=C\C(=O)/C=C(\C)[C@@H]2O
The AC35 of the first is 9.1-fold lower: 1.37 µM for the first, 12.5 µM for the second.

First: O=C(C1CC1)N1C[C@@H]2N[C@H](C1)C2c1ccc(/C=C/c2ccccc2)cc1 (some centres not stated)
Second: CC(C)=CCC/C(C)=C/CN1C(=O)N(c2ccc(F)cc2)[C@H]2C[C@@H](c3ccccc3)[C@@H](C)[C@@H](C(=O)N3CCOCC3)C[C@H]21
The AC35 of the first is 2.9-fold higher: 10.7 µM for the first, 3.74 µM for the second.

Compared with Nc1ccc(-c2cc3ccccc3oc2=O)cc1, Cn1ccc2cc(-c3ccc4ncnc(NCc5cccs5)c4c3)ccc21 is 6.9-fold higher in AC35: 2.42 µM for the first, 16.6 µM for the second.

Going from CN1C2CCC1/C(=C/c1ccccn1)C(=O)/C2=C\c1ccccn1 to C/C(=C\c1ccccc1)C(=O)N1CCC=CC1=O, the AC35 rises from 1.27 µM to 4.88 µM (3.8-fold).

First: C[C@@H]1CN([C@@H](C)CO)C(=O)c2cc(NS(=O)(=O)c3ccc(F)cc3)ccc2O[C@@H]1CN(C)Cc1ccc(C(=O)Nc2ccccc2N)cc1
Second: C[C@H]1CN([C@@H](C)CO)C(=O)c2cc(NC(=O)C3CCCCC3)ccc2O[C@H]1CN(C)Cc1ccc(C(=O)Nc2ccccc2N)cc1
The AC35 of the first is 4.2-fold lower: 0.354 µM for the first, 1.47 µM for the second.

COc1ccc(Cn2cc3c(-c4ccc(F)cc4)nnc-3c3cc(OC)c(OC)cc32)cc1 and COc1ccc(/C=C/C(=O)c2ccc(C(=O)/C=C/c3ccc(OC)c(OC)c3)cc2)cc1OC are within 1.5-fold of each other in AC35: 10.6 µM for the first, 15.1 µM for the second.

Compared with C=C1C(=O)C=C[C@]2(C)C[C@@H]3OC(=O)[C@](C)(O)[C@H]3C[C@@H]12, C[C@@H]1O[C@@H](O[C@@H]2C=C3CCC4C(CC[C@]5(C)[C@@H](c6ccc(=O)oc6)CC[C@]45O)[C@@]3(C)CC2)[C@H](O)[C@H](O)[C@H]1O (some centres not stated) is 170-fold lower in AC35: 11.8 µM for the first, 0.068 µM for the second.

Going from COc1cccc(-c2cc(NC=O)c3ncc(-c4ccc(C(C)=O)cc4)n3c2)c1 to CO[C@H]1CN(C)C(=O)c2ccc(NC(=O)c3ccc(-c4ccccc4)cc3)cc2OC[C@H](C)NC[C@H]1C, the AC35 falls from 15.5 µM to 6.36 µM (2.4-fold).

First: C[C@@H]1CN([C@@H](C)CO)C(=O)Cc2cc(NC(=O)C3CCCCC3)ccc2O[C@H]1CN(C)Cc1ccc(C(=O)Nc2ccccc2N)cc1
Second: C[C@@H]1CN([C@H](C)CO)C(=O)Cc2cc(NC(=O)CCCCCC(=O)Nc3ccccc3N)ccc2O[C@@H]1CN(C)CC1CCCCC1
The AC35 of the first is 2.3-fold lower: 0.83 µM for the first, 1.93 µM for the second.

Going from O=C(Nc1ccc(F)cc1)N1CCCCN2[C@@H](CO)[C@H](c3ccc(C4=CCCCC4)cc3)[C@@H]2C1 to CN(C[C@H]1N[C@@H](CO)[C@@H]1c1ccc(C2=CCCC2)cc1)C(=O)c1ccc(F)cc1, the AC35 falls from 8.45 µM to 4.57 µM (1.8-fold).

Going from CCOc1ccc2nc(NC3=NC(c4ccc(OC)cc4)CC(=O)N3)nc(C)c2c1 (configuration not stated) to C[C@@H]1CN([C@H](C)CO)C(=O)c2cc(C#CCN(C)C)cnc2O[C@H]1CN(C)Cc1ccc(-c2ccccc2)cc1, the AC35 falls from 10.2 µM to 2.79 µM (3.7-fold).

Compared with C[C@H]1CN([C@@H](C)CO)C(=O)c2cccc(NC(=O)c3ccc(-c4nccs4)cc3)c2O[C@@H]1CN(C)Cc1ccc(C(=O)Nc2ccccc2N)cc1, C[C@H]1CCCCO[C@H](CN(C)Cc2ccc(C(F)(F)F)cc2)[C@@H](C)CN([C@@H](C)CO)C(=O)c2cc(NC(=O)Nc3ccccc3)ccc2O1 is 5.5-fold higher in AC35: 4.1 µM for the first, 22.4 µM for the second.

Compared with Cc1ccc(S(=O)(=O)Nc2ccc3c(c2)C(=O)N([C@H](C)CO)C[C@H](C)[C@@H](CN(C)Cc2ccc(C(F)(F)F)cc2)OCCCC[C@H](C)O3)cc1, C[C@@H]1CN([C@H](C)CO)S(=O)(=O)c2ccc(C#CC(C)(C)O)cc2O[C@H]1CN(C)Cc1ccc(-c2ccccc2)cc1 is 1.6-fold lower in AC35: 10 µM for the first, 6.19 µM for the second.

Going from COC(=O)C[C@@H]1CC[C@H]2[C@H](COc3ccc(NC(=O)Nc4ccc(C#N)cc4)cc3C(=O)N2C)O1 to O=C(Nc1cccc(S(=O)(=O)N2CCCC2)c1)c1ccc(Cl)nc1, the AC35 rises from 4.2 µM to 16 µM (3.8-fold).

CN=c1scc(-c2cccs2)n1/N=C/c1ccccc1O and BrC(=C\c1ccccc1)/C=N/n1cnnc1 are within 1.5-fold of each other in AC35: 20.8 µM for the first, 16.6 µM for the second.

Going from CC1(C(=O)NCc2ccco2)Cc2c(-c3cccc(C(N)=O)c3)ccnc2O1 (configuration not stated) to Nc1nc(=S)c2[nH]cnc2[nH]1, the AC35 falls from 14.5 µM to 1.81 µM (8-fold).
